# Assay results as given in US20050123603A1, “Natural menaquinone 7 compositions” (Natural ASA, priority 2003, published 2005).
# How the values were obtained:
# [1] = serum vitamin K (K1, MK-7) during 6-week daily supplementation with nattoK2 capsules or K1; type: in vivo, human
# Protocol: (§1) An open study was conducted in which 12 volunteers were randomized in two groups receiving either 180 μg MK-7 (menaquinone 7, 0.27 μmol) or 150 μg K1 (0.33 μmol) per day. The MK-7 was obtained from 2 nattoK2 capsules (Natural ASA) per day, the K1 from a pharmacological preparation (Roche). The supplements were taken at 18.00 h of each day during the 6-week study period. Blood was taken between 08.00 and 09.00 h of days 0 (baseline), 3, 7, 14, 21, 28, 35, and 42. A non-treated control group (n=3) served as a reference group, with blood drawings on days 0, 14, 28, and 42.
# (§2) Measurements: vitamin K1, MK-7, under-carboxylated osteocalcin (ucOC) and carboxylated osteocalcin (cOC).
# (§3) Study population: 6 men and 6 women, aged 55-60 (women postmenopausal). Non-treated controls: 1 man, 2 women in the same age range.
# MK-7 and K1 have different molecular weights (650 and 450, respectively). Therefore, all doses and concentrations were calculated on a molar basis. Since the daily dose of MK-7 from natto was 18% lower than that from K1 (0.27 and 0.33 μmol/day, respectively), it should be kept in mind that the expected results for natto capsules are similarly lower compared to those for K1. […] The normal ranges for K1 and MK-7 in non-treated subjects are between 500 and 1000 pmol/L (FIG. 5C). […] Due to the limited number of participants, the mean baseline levels in the various groups may differ.
# [2] = tested on: bone loss; conditions: postmenopausal women, intervention studies; cited from earlier work
# [3] = tested on: carboxylated osteocalcin (cOC); test: serum carboxylated osteocalcin (cOC) during 6-week supplementation; type: in vivo, human; conditions: 6-week daily supplementation, K1 150 μg or 180 μg MK-7 from nattoK2, FIG. 8
# Protocol: as §1, §2, §3
# [4] = tested on: osteocalcin; test: vitamin K status of bone, cOC/ucOC ratio, during 6-week supplementation; type: in vivo, human
# Protocol: as §1, §2, §3
# (§4) These values are needed to calculate the vitamin K-status in bone (the ratio cOC/ucOC) and to estimate the bone metabolic activity (cOC+ucOC). Here a remarkable difference between the effects of K1 and nattoK2 (i.e.: MK-7) was found: whereas cOC was increased by K1 supplementation, it was decreased by nattoK2. The importance of this finding will become clear from FIGS. 9 and 10.
# [5] = tested on: osteocalcin; test: bone turnover measured as ucOC+cOC during 6-week supplementation; type: in vivo, human
# Protocol: as §1, §2, §3, §4
# [6] = tested on: under-carboxylated osteocalcin (ucOC); test: serum under-carboxylated osteocalcin (ucOC) during 6-week supplementation; type: in vivo, human
# Protocol: as §1, §2, §3
Structure (SMILES),"serum K1 level, plateau value ([1]; K1 150 μg (0.33 μmol) per day, blood taken about 15 h after intake, mean)",serum K1 level at 15 h after ingestion ([1]; K1 150 μg per day),time to plateau of serum K1 ([1]; K1 150 μg per day),"increase in total vitamin K status relative to baseline (mean plateau value) ([1]; K1 150 μg per day, 6 weeks, FIG. 6)","serum K1 level at baseline ([1]; K1 group, day 0, mean)",lower rate of bone loss in supplemented groups [2],treatment-induced change in serum carboxylated osteocalcin (cOC) [3],time to plateau levels of the cOC/ucOC ratio ([4]; K1 supplementation),"bone turnover measured as ucOC+cOC, end of regimen ([5]; K1 150 μg per day, 6 weeks)","bone turnover measured as ucOC+cOC, start of regimen ([5]; K1 group)",time to reach decreased ucOC value ([6]; K1 150 μg per day),"serum ucOC after treatment ([6]; K1 150 μg per day, value reached within three days)",serum ucOC at baseline ([6]; K1 group),"time at which mean cOC/ucOC ratio crosses the K1 curve ([4]; menaquinone 7 supplementation, ratio increased gradually, no levelling off)"
CC1=C(C/C=C(\C)CCC[C@H](C)CCC[C@H](C)CCCC(C)C)C(=O)c2ccccc2C1=O [K1],around 2000 pmol/L,near-baseline levels,within the first three days,1500 pmol/L,816 pmol/L,40%,increased,3 days,5.33,5.28,within three days,1.7 µg/L,2.1 µg/L,
"CC(C)=CCC/C(C)=C/CC/C(C)=C/CC/C(C)=C/CC/C(C)=C/CC/C(C)=C/CC/C(C)=C/CC1=C(C)C(=O)c2ccccc2C1=O [menaquinone 7, (all-E)-2-(3,7,11,15,19,23,27-Heptamethyl-2,6,10,14,18,22,26-octacosaheptaenyl)-3-methyl-1,4-naphthalenedione]",,,,,,,,,,,,,,5 week
